T1: TRRAP (wild-type S722) peptide on HLA-A*02:01 (human)
T1 peptide: KLVFGSVSL

T2: TRRAP S722F peptide on HLA-A*02:01 (human)
T2 peptide: KLVFGSVFL

B1: TRRAP S722F TCR, dominant TCR Valpha17-Vbeta27 pair (TCR)
alpha TRAV17-1 TRAJ58 CDR3: CATDAEETSGSRLTF
beta TRBV27-1 TRBJ2-1 CDR3: CASSLAGIYNEQFF

What was measured:
[1] = test system: CD8^+ T cells; assay: Peptide immunization of ABab.I mice, intracellular IFN-γ staining of CD8+ T cells; type: in vivo, mouse; conditions: for CD8^+ T cells produced IFN-γ: ABab.I mice, peripheral blood restimulated in vitro seven days post-injection; for mice responded: out of 6-7 mice/antigen
Description: A 200 μl injection suspension containing 100 μg of short peptides in PBS, 100 μl of incomplete Freund's adjuvant, and 50 μg CpG oligonucleotides were injected subcutaneously on both lateral sides of hind legs. 10- to 20-week-old young ABabDII or ABab.I mice (6-7 mice/group) were immunized with a 4-week interval between prime-boosts. […] As standard controls, ABabDII^1 and ABab.I mice were immunized with 100 μg of MAGE-A1278 […] […] 7-10 days after every boost injection, peripheral blood cells from immunized mice were ACK-lysed and cultured with 1 μM respective specific or unspecific peptide in the presence of protein transport inhibitor for 5-6 hours. Post-cell fixation, cells were intracellularly stained for IFN-γ, surface stained for CD3, CD8 markers, and analyzed by flow cytometry.
We analyzed ABab.I mice for antigen-specific CD8^+ T cell responses against described model antigens (FIG. 19A) using peptide immunization (FIG. 20). […] The MAGE-A1 epitope, […] The unspecific peptide used in in vitro restimulations was a NY-ESO epitope, […] (SEQ ID NO: 180).
Procedure: young mice were peptide-immunized (minimum twice) with intervals of at least 4-weeks between injections. Seven days post-booster injections, PBMCs from multi-HLA mice were stimulated in vitro with either the same peptides used for immunization (right), or unspecific peptides (left), or CD3/CD28 beads (middle, positive control). Intracellular flow cytometry staining measured the amount of IFN-γ cytokine released by the CD8^+ T cells after reacting to their respective epitopes. By flow cytometry, CD8^+ T cells were in vitro measured for CD3, CD8, and intracellularly IFN-γ expression. Dot plots in the figure depict CD8^+ IFN-γ^+ T cells (gated on CD3^+ lymphocytes). As an unspecific peptide, NY-ESO peptide ([…]) was used (as a negative control) only for in vitro stimulations.

[2] = test system: CD8^+ T cells; assay: Peptide immunization of ABabDII mice, CD8+ T cell IFN-γ response; type: in vivo, mouse
Description: A 200 μl injection suspension containing 100 μg of short peptides in PBS, 100 μl of incomplete Freund's adjuvant, and 50 μg CpG oligonucleotides were injected subcutaneously on both lateral sides of hind legs. 10- to 20-week-old young ABabDII or ABab.I mice (6-7 mice/group) were immunized with a 4-week interval between prime-boosts. Similar peptide mixtures were prepared and injected for further boosting regimens of all peptides. As standard controls, ABabDII^1 and ABab.I mice were immunized with 100 μg of MAGE-A1278 […] (SEQ ID NO: 26) peptide with a similar injection mixture. 7-10 days after every boost injection, peripheral blood cells from immunized mice were ACK-lysed and cultured with 1 μM respective specific or unspecific peptide in the presence of protein transport inhibitor for 5-6 hours. Post-cell fixation, cells were intracellularly stained for IFN-γ, surface stained for CD3, CD8 markers, and analyzed by flow cytometry.
For TCR candidate discovery, young ABabDII mice (n=7, 12-16 weeks) were immunized with mutant 9-mer peptides (FIG. 3B, […], SEQ ID NO: 30) at 4-week intervals. CD8^+ T cell responses were analyzed in blood one week after every boost using intracellular staining, followed by culturing the T cells and IFN-γ capture assay to sort for peptide-specific T cells (FIG. 4A). […]

[3] = test system: A375 cells; assay: Endogenous processing assay, co-culture with A375 cells, IFN-γ; type: cell-based, Homo sapiens; conditions: concluded from TCR co-culture with TRRAP+ cell lines
Text: FIGS. 4A-4F show the generation and characterization of TRRAP S722F TCRs in ABabDII mice. FIG. 4A depicts the TCR discovery pipeline with the immunization schedule as used in an illustrative example. […] Controls with wild-type S722 peptide or without (w/o) peptide. One representative flow cytometry plot out of three responder mice is given. […] IFN-γ levels measured after overnight co-culture of PBMCs (1×10^5) either with A375 cells (mutant-S722F^+, NY-ESO^+) or with SK-Mel-37 (wild-type-S722^+, NY-ESO^+). The TCR-ESO recognizes the NY-ESO157-165 epitope. Bar graph represents mean±SD (n=2). One representation out of three co-culture experiments is given.
Transduced T cells were co-cultured with peptide-titrated T2 (TAP^−/−) cells to ensure TCR interaction and its affinity to S722F. […] NY-ESO157-165, the HLA-A2 epitope is expressed on melanoma cells A375 and SK-Mel-37.

[4] = target: T1, TRRAP (wild-type S722) peptide on …; assay: cytokine release
[5] = target: T2, TRRAP S722F peptide on HLA-A*02:01; assay: cytokine release

Molecule	CD8^+ T cells produced IFN-γ [1]	mice responded [1]	also measured
APRGPHGGAASGL (NY- ESO peptide; NY- ESO epitope) [unspecific NY-ESO peptide used for in vitro restimulation]	No T cell responses were observed	–	–
KLVFGSVEL [mutant epitope-S722F, TRRAP S722F mutant nonamer, HLA-A2-restricted]	–	–	T cells responding in the spleen after T cell culturing ([2]; 10^−9 M peptide and IL-2 (20 IU/ml) for 10 days): about 17%; T cells responded in blood ([2]; ABabDII mice, one-week post-4th injection (3rd boost)): about 0.8%; endogenous processing and presentation on HLA-A2 [3]: not endogenously processed and presented on HLA-A2
KMRMRRMRR	about 1.8%	1	–
KVLEYVIKV	~1%	3	–
QYDPVAALF	about 0.3%	–	–
SAFRCFIVY	about 0.2%	3	–
TPRVTGGGAM	About 1.4%	–	–
VRIGHLYIL	about 0.23%	1	–
VVGAVGVGK	About 6.9%	6	–
B1	–	–	binding result [4]: no recognition; binding result [5]: recognises

Reference: US20250098651A1, “A NON-HUMAN MAMMAL COMPRISING IN ITS GENOME AT LEAST TWO HUMAN LEUKOCYTE ANTIGEN (HLA) CLASS I ALLELES, METHODS OF MAKING SUCH MAMMAL AND USES THEREOF” (Max-Delbrueck-Centrum für Molekulare Medizin in der …, priority 2022, published 2025)
